According to the NIST ThermoML archive (doi:10.1021/acs.jced.9b00171):

What was measured:
[1] = refractive index (Na D-line) (dimensionless); wn = mass fraction of the nth substance listed; details: 101.3 kPa, Liquid, Standard Abbe refractometry
[2] = wn = mass fraction of the nth substance listed; details: 101.3 kPa, Liquid, Oscillating disk viscometry

CNCCO [2-(methylamino)ethanol] + O
Details	refractive index, [1]	viscosity, [2] [mPa·s]
293.15 K, w1 = 0.05	1.3421	1.31
293.15 K, w1 = 0.1	1.3452	1.68
293.15 K, w1 = 0.15	1.3484	2.38
293.15 K, w1 = 0.2	1.3522	2.66
293.15 K, w1 = 0.25	1.3568	3.4
293.15 K, w1 = 0.3	1.3624	4.22
298.15 K, w1 = 0.05	1.3414	1.1
298.15 K, w1 = 0.1	1.3444	1.42
298.15 K, w1 = 0.15	1.3476	2.02
298.15 K, w1 = 0.2	1.3513	2.17
298.15 K, w1 = 0.25	1.3558	2.74
298.15 K, w1 = 0.3	1.3614	3.52
303.15 K, w1 = 0.05	1.3405	0.99
303.15 K, w1 = 0.1	1.3435	1.22
303.15 K, w1 = 0.15	1.3467	1.74
303.15 K, w1 = 0.2	1.3502	1.83
303.15 K, w1 = 0.25	1.3547	2.32
303.15 K, w1 = 0.3	1.3602	2.96
308.15 K, w1 = 0.05	1.3396	0.88
308.15 K, w1 = 0.1	1.3426	1.05
308.15 K, w1 = 0.15	1.3456	1.42
308.15 K, w1 = 0.2	1.349	1.52
308.15 K, w1 = 0.25	1.3534	1.96
308.15 K, w1 = 0.3	1.3588	2.52
313.15 K, w1 = 0.05	1.3386	0.79
313.15 K, w1 = 0.1	1.3416	0.94
313.15 K, w1 = 0.15	1.3445	1.22
313.15 K, w1 = 0.2	1.3478	1.32
313.15 K, w1 = 0.25	1.352	1.71
313.15 K, w1 = 0.3	1.3573	2.2
318.15 K, w1 = 0.05	1.3375	0.72
318.15 K, w1 = 0.1	1.3405	0.84
318.15 K, w1 = 0.15	1.3434	1.04
318.15 K, w1 = 0.2	1.3465	1.19
318.15 K, w1 = 0.25	1.3505	1.49
318.15 K, w1 = 0.3	1.3558	1.92
323.15 K, w1 = 0.05	1.3364	0.65
323.15 K, w1 = 0.1	1.3394	0.75
323.15 K, w1 = 0.15	1.3421	0.93
323.15 K, w1 = 0.2	1.3451	1.06
323.15 K, w1 = 0.25	1.349	1.29
323.15 K, w1 = 0.3	1.3542	1.65
328.15 K, w1 = 0.05	1.3352	0.58
328.15 K, w1 = 0.1	1.3381	0.67
328.15 K, w1 = 0.15	1.3406	0.83
328.15 K, w1 = 0.2	1.3436	0.94
328.15 K, w1 = 0.25	1.3474	1.12
328.15 K, w1 = 0.3	1.3524	1.41
333.15 K, w1 = 0.05	1.334	0.52
333.15 K, w1 = 0.1	1.3368	0.6
333.15 K, w1 = 0.15	1.3391	0.74
333.15 K, w1 = 0.2	1.342	0.83
333.15 K, w1 = 0.25	1.3456	0.99
333.15 K, w1 = 0.3	1.3504	1.2

NCCNCCO [N-(2-aminoethyl)ethanolamine] + O
Details	refractive index, [1]	viscosity, [2] [mPa·s]
293.15 K, w1 = 0.05	1.3406	1.2
293.15 K, w1 = 0.1	1.3452	1.6
293.15 K, w1 = 0.15	1.351	2.02
293.15 K, w1 = 0.2	1.3582	2.58
293.15 K, w1 = 0.25	1.366	3.47
293.15 K, w1 = 0.3	1.3752	4.73
298.15 K, w1 = 0.05	1.3401	1.11
298.15 K, w1 = 0.1	1.3446	1.36
298.15 K, w1 = 0.15	1.3504	1.74
298.15 K, w1 = 0.2	1.3575	2.22
298.15 K, w1 = 0.25	1.3652	2.98
298.15 K, w1 = 0.3	1.3744	3.95
303.15 K, w1 = 0.05	1.3394	0.95
303.15 K, w1 = 0.1	1.3438	1.18
303.15 K, w1 = 0.15	1.3496	1.48
303.15 K, w1 = 0.2	1.3567	1.89
303.15 K, w1 = 0.25	1.3643	2.37
303.15 K, w1 = 0.3	1.3735	3.32
308.15 K, w1 = 0.05	1.3387	0.85
308.15 K, w1 = 0.1	1.343	1.06
308.15 K, w1 = 0.15	1.3487	1.32
308.15 K, w1 = 0.2	1.3558	1.63
308.15 K, w1 = 0.25	1.3633	2.08
308.15 K, w1 = 0.3	1.3724	2.61
313.15 K, w1 = 0.05	1.3378	0.76
313.15 K, w1 = 0.1	1.3421	0.94
313.15 K, w1 = 0.15	1.3476	1.17
313.15 K, w1 = 0.2	1.3548	1.41
313.15 K, w1 = 0.25	1.3622	1.76
313.15 K, w1 = 0.3	1.3712	2.19
318.15 K, w1 = 0.05	1.3368	0.69
318.15 K, w1 = 0.1	1.341	0.84
318.15 K, w1 = 0.15	1.3464	1.03
318.15 K, w1 = 0.2	1.3536	1.24
318.15 K, w1 = 0.25	1.361	1.53
318.15 K, w1 = 0.3	1.3698	1.86
323.15 K, w1 = 0.05	1.3358	0.64
323.15 K, w1 = 0.1	1.3398	0.77
323.15 K, w1 = 0.15	1.3451	0.92
323.15 K, w1 = 0.2	1.3523	1.08
323.15 K, w1 = 0.25	1.3597	1.28
323.15 K, w1 = 0.3	1.3682	1.59
328.15 K, w1 = 0.05	1.3347	0.59
328.15 K, w1 = 0.1	1.3385	0.7
328.15 K, w1 = 0.15	1.3436	0.82
328.15 K, w1 = 0.2	1.3508	0.95
328.15 K, w1 = 0.25	1.3582	1.11
328.15 K, w1 = 0.3	1.3664	1.35
333.15 K, w1 = 0.05	1.3335	0.55
333.15 K, w1 = 0.1	1.3371	0.64
333.15 K, w1 = 0.15	1.342	0.74
333.15 K, w1 = 0.2	1.3491	0.87
333.15 K, w1 = 0.25	1.3566	1.02
333.15 K, w1 = 0.3	1.3648	1.2
